Results taken from patent US20250049791A1, “Synthesis of MEK7 Inhibitors and methods of Use Thereof” (Northwestern University, priority 2023, published 2025).
“Also recorded” adds a separate entry of the source.

Legend:
MEK3 = biological target: T1, MEK3 (Homo sapiens, UniProt P46734); experiment: Additional selectivity assay, MEK3 (FIG. 9); assay type: binding
T1 sequence (P46734 1-347): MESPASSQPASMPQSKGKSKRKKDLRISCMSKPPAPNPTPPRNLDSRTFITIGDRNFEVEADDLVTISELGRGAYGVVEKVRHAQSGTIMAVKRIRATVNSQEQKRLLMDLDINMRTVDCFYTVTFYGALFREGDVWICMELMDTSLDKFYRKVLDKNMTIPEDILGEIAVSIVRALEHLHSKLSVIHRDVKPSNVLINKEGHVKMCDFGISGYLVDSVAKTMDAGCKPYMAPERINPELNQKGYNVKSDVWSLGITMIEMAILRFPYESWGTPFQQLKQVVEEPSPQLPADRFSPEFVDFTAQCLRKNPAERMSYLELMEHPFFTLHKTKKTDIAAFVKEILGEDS

[1] = biological target: T2, full-length MAP2K7 N-terminal GST fusion protein (Homo sapiens, UniProt O14733); experiment: Whole-protein LC/TOF-MS of covalent labeling; assay type: binding; conditions: 2 equiv inhibitor, 5° C., 12 hours
T2 construct: purchased Carna Biosciences 07-147-10; host or cells: E. coli
T2 sequence (O14733 1-419): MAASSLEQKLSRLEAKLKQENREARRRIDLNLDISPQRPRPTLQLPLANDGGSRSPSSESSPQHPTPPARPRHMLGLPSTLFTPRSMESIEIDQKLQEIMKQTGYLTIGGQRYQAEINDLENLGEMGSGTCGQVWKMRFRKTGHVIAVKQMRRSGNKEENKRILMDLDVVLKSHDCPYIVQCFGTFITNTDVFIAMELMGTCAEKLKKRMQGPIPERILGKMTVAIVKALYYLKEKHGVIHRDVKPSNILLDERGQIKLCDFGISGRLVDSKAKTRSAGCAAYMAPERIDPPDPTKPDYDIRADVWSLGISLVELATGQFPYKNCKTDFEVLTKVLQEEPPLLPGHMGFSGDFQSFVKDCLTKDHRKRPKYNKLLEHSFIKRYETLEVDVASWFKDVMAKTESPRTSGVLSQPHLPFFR
Protocol: The construct was full-length MAP2K7 (1-419 amino acids of accession number NP_660186.1), which was prepared by the manufacturer as an N-terminal GST-fusion protein using an E. coli expression system. The construct was then purified by glutathione sepharose chromatography and shipped in a storage buffer containing 50 mM Tris —HCl, 150 mM NaCl, 0.05 mM Brij-35, 1 mM DTT, and 10% glycerol at pH=7.5.
Each whole-protein MS experiment was run with a 10 uL injection of a sample containing 50 μg of protein diluted to a final volume of 100 μL. The construct aliquots were first diluted to the appropriate volume with an aqueous solution of 150 mM NaCl and 50 mM Tris —HCl. The diluted samples were loaded on a Pierce spin column (ThermoFisher Scientific catalog number: 87777) to remove Brij-35 and finally eluted with the appropriate volume of the same buffer. Finally, 1.3 uL of DMSO (vehicle) or a 1 mM DMSO solution of covalent inhibitor was added, and the resulting roughly 101 uL solutions were incubated at 5° C. for 12 hours. The incubates were injected (10 uL) on an Agilent 6201 MSLC-TOF (ESI) with a protein column. A 10 minute water:acetonitrile gradient was performed, eluting recombinant proteins of interest in roughly 5 minutes. Masses were deconvoluted using MassHunter BioConfirm (maximum entropy).

MEK1/2 = experiment: ScanEDGE competition binding, MEK1/2; conditions: ScanEDGE screen
From the text: The ScanEDGE assay, completed by DiscoverX (Eurofins) is a proprietary active site-directed competition binding assay. Compounds that bind the kinase active site prevent kinase binding to the immobilized ligand, reducing the amount of kinase captured on the solid support. Hits are identified by measuring the amount of kinase captured in experimental vs, control samples by a qPCR method that detects an associated DNA label. According to data provided by Eurofins, a typical hit at 5-10% of control signal in a 1 μM assay as shown above is generally associated with a KD in the range of 100-1,000 nM. Readings with greater than 35% of control signal correspond to exceeding large dissociation constants.

MEK6 = biological target: T3, MEK6 (Homo sapiens, UniProt P52564); experiment: Additional selectivity assay, MEK6 (FIG. 9); assay type: binding
T3 sequence (P52564 1-334): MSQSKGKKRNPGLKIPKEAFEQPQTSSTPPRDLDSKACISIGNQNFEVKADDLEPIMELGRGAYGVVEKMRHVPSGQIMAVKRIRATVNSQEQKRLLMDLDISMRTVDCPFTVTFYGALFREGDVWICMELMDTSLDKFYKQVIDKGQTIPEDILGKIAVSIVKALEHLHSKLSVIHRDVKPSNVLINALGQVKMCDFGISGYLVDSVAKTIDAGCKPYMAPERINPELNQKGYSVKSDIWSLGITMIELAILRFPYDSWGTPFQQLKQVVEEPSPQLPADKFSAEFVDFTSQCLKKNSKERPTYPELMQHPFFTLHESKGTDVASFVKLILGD

[2] = biological target: T4, MAP2K7 recombinant protein (Homo sapiens, UniProt O14733); experiment: LC/MS-MS determination of residue selectivity; assay type: binding
T4 construct: purchased Carna Biosciences 07-147-10; host or cells: E. coli
T4 sequence (O14733 1-419): T2 sequence (O14733 1-419)
Protocol: MAP2K7 recombinant protein was diluted, purified, and incubated as described above. After incubation, protein solution was denatured with 8 M urea for 10 minutes at 65° C., reduced with 12.5 mM DTT for 15 minutes at 65° C., and alkylated with 25 mM iodoacetamide in the absence of light for 30 minutes at 37° C. Protein solution was diluted with PBS to 2 M urea and divided into two digestion reactions: one with 2 μg trypsin and 10 μg chymotrypsin for 6 hours at 37° C., the other with 5 μg GluC for 6 hours at 37° C. Digested peptides were acidified with 5% formic acid and desalted using Sep-Pak C18 1 cc Vac Cartridge (Waters). Peptides were analyzed by liquid chromatography tandem mass-spectrometry using an Orbitrap Eclipse Tribrid Mass Spectrometer (Thermo Scientific) coupled to an Vanquish Neo UHPLC System (Thermo Scientific). Peptides were injected onto EASY-Spray HPLC Column (C18, 2 μm particle size, 75 μm inner diameter, 250 mm length) and separated at a flow rate of […] using the following gradient: 5% buffer B (80% acetonitrile with 0.1% formic acid) in buffer A (water with 0.1% formic acid) from 0-15 min, 5-45% buffer B from 15-155 min, 45-100% buffer B from 155-180 min. Raw data was searched in Proteome Discoverer 2.5 (Thermo Scientific).

## O=C(CCl)Nc1cccc(Oc2cc(NCc3ccccc3)ncn2)c1 [Compound 25, N-(3-((6-(benzylamino)pyrimidin-4-yl)oxy)phenyl)-2-chloroacetamide]
MEK3
  activity/binding at MEK3: inactive; also recorded: lack of binding
[1]
  covalent labeling of MAP2K7, whole-protein MS: covalent engagement; also recorded: Complete labeling
MEK1/2
  activity on MEK1/2: no appreciable activity
MEK6
  activity/binding at MEK6: inactive; also recorded: lack of binding
[2]
  cysteine residue covalently engaged, GluC digest: Cys341
  cysteine residue covalently engaged, trypsin/chymotrypsin digest: Cys218
